Measurements taken from patent publication US9670200B2, “Quaternary ammonium salt prodrugs” (Alkermes Pharma Ireland Limited, priority 2010, dated 2017).
Where two headings read alike, the source gives them in different places.

Key:
[1] = Text: At pH 4 and 5, 0.1 M citrate buffers were used, while for pH 6, 7 and 8a set of 0.1 M phosphate buffers were used. Each buffer also contained 0.2 M NaCl. No cosolvents or other potentially solubilizing components were included. Buffer preparations were subdivided in order to individually test the solubility of only one material in a given buffer sample.
[2] = Pharmacokinetic evaluation of asenapine and asenapine prodrugs in rats; assay type: in vivo, Sprague-Dawley rats; conditions: rat, 10 mg/rat IM
Experimental: Animals: 18 Male Sprague-Dawley rats (Charles River Laboratories, Wilmington, Mass.) were used in the study. Three groups of 6 rats were used and are referred to in this study as Groups A, B and C. Rats were approximately 350-375 g at time of arrival. Rats are housed 2 per cage with ad libitum chow and water. Environmental conditions in the housing room: 64-67° F., 30% to 70% relative humidity, and 12:12-h light: dark cycle. All experiments were approved by the institutional animal care and use committee.
Test Compounds: The following formulations of Asenapine parent drug and prodrug compounds of the invention were used in the study.
Pharmacokinetics study: Rats were dosed IM by means of a 23 gauge, 1 in. needle with 1 cc syringe 0.3 mL suspension was withdrawn from the vial containing the test compound. The rat was injected in the muscles of the hind limb after anesthesia with isoflurane. Blood samples were collected via a lateral tail vein after brief anesthesia with Isoflurane. A 271/2 G needle and 1 cc syringe without an anticoagulant was used for the blood collection. Approximately 350 μL of whole blood was collected at each sampling time point of 6 hours, 24 hours and 2, 5, 7, 9, 12, 14, 21, 28, 35 days after administration. Once collected, whole blood was immediately transferred to tubes containing K2 EDTA, inverted 10-15 times and immediately placed on ice. The tubes were centrifuged for 2 minutes at >14,000 g′ s (11500 RPMs using Eppendorf Centrifuge 5417C, F45-30-11 rotor) at room temperature to separate plasma. Plasma samples were transferred to labeled plain tubes (MICROTAINER®; MFG# BD5962) and stored frozen at <−70° C.
Drug concentrations in plasma samples were analyzed by liquid chromatography-mass spectroscopy using appropriate parameters for each compound. Half-life, volume of distribution, clearance, maximal concentration, and AUC were calculated by using WinNonlin version 5.2 software (Pharsight, St. Louis, Mo.).

[3] = Solution stability of asenapine prodrugs as a function of pH; assay type: physicochemical; conditions: 0.01M buffers pH 2.11-9.01 with acetonitrile, 25° C., HPLC at 1, 4, 10, 24 hours; compared with asenapine octanoate (FIGS. 1 and 2)
Experimental: The asenapine derived prodrugs were prepared at approximately 300 ug/mL in buffers with acetonitrile (see table of buffers below). The initial ratio of prodrug/parent was measured using a freshly prepared solution in unbuffered water. Acetonitrile was titrated into all samples as needed to ensure the complete dissolution of the compounds. The amount of acetonitrile varied depending on the solubility of each compound (see Note 1). 1.5 mL of each stability sample was transferred into a HPLC vial and the vials were maintained at 25° C. in the temperature controlled sample compartment of the HPLC. Each sample was assayed by HPLC after 1, 4, 10, and 24 hours for prodrug and asenapine content (see Note 2).
The fraction of prodrug remaining at each time point was calculated as Fraction Prodrug=(HPLC Area of Prodrug)/(HPLC area of prodrug+asenapine)(see Note 3). The loss of prodrug was then fit to the equation for first order decay: Fraction Prodrug=(Initial Fraction prodrug)*e^−kt where t=time (in hours) and k is the rate constant for decay. Finally, the half-lives were calculated as: t1/2=0.693/k
Note 1: The acetonitrile concentration is not expected to have a large impact on the degradation rate since the rate follows first order decay with respect to compound (ie, the rate constant is independent of the concentration). […]

For Cc1cc2c(s1)Nc1ccccc1N=C2N1CCN(C)CC1.O.O=C(O)c1cc2ccccc2c(Cc2c(O)c(C(=O)O)cc3ccccc23)c1O [olanzapine pamoate salt, olanzapine pamoate, reference compound], which “variation in solubility across the pH range studied” value ([1]; room temperature, 0.1 M citrate (pH 4, 5) or phosphate (pH 6, 7, 8) buffers with 0.2 M NaCl, pH range 4-9 (FIG. 4)) is on record?
Its value is > 10 fold.

For CCC(C)(C)C(=O)OC[N+]1(C)CC2c3ccccc3Oc3ccc(Cl)cc3C2C1.[I-] (stereo not drawn) [Asenapine dimethyl butyrate prodrug, asenapine (α,α)-dimethyl butyrate iodide], which “decrease in plasma concentration over all the time points sampled” value ([2]; 6 hours to 35 days, compared with Asenapine or Asenapine palmitate prodrug) is on record?
Its value is “more gradual decrease”.

What about the “duration of asenapine pharmacokinetics in the animals” value ([2]; compared with Asenapine or Asenapine palmitate prodrug) of the same compound?
The value was “longer duration”.

With CCCCCCCCCCCCC(C)(C)C(=O)OC[N+]1(C)CCN(C2=Nc3ccccc3Nc3sc(C)cc32)CC1.[I-] [Compound 18, 1-(((2,2-dimethyltetradecanoyl)oxy)methyl)-1-methyl-4-(2-methyl-10H-benzo[b]thieno[2,3-e][1,4]diazepin-4-yl)piperazin-1-ium iodide] as the compound, how does the “variation in solubility across the pH range studied” value [1] read?
Its value is “less than 2 fold”.

With CCC(C)(C)C(=O)OC[N+]1(C)CC2c3ccccc3Oc3ccc(Cl)cc3C2C1.[I-] (stereo not drawn) [ASN-83, 5-chloro-2-(((2,2-dimethylbutanoyl)oxy)methyl)-2-methyl-2,3,3a,12b-tetrahydro-1H-dibenzo[2,3:6,7]oxepino[4,5-c]pyrrol-2-ium iodide] as the compound, how does the “Cmax of the Asenapine released” value ([2]; plasma, compared with parent Asenapine formulation and Asenapine palmitate prodrug (FIG. 3)) read?
Its value is “lower”.

With CC(C)(C)C(=O)OC[N+]1(C)CC2c3ccccc3Oc3ccc(Cl)cc3C2C1.[Cl-] (stereo not drawn) [asenapine pivalate, asenapine pivalate prodrug] as the compound, how does the “Solution stability as a function of pH” value [3] read?
Its value is “more stable”.
